The target of assay [1] is T1, Mcl-1 (myeloid cell leukemia-1) (Homo sapiens, UniProt Q07820). In words: 1H-15N HSQC NMR titration. In kind it is binding.
The target of assay [2] is T1, Mcl-1 (myeloid cell leukemia-1). Briefly: 1H-15N HSQC NMR titration. Type of assay: binding. This is another data set of the same source.

Like-named read-outs stand apart in the source and are kept apart here.

T1 sequence (Q07820 172-327): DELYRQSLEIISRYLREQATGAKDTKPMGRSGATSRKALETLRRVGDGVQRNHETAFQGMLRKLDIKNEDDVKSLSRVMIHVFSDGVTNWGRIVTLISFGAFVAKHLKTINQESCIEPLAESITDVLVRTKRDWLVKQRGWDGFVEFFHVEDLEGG

Usually Kd stands for the equilibrium constant for the complex coming apart. In assay [1], `Cc1cccc(Nc2ccncc2S(=O)(=O)NC(=O)NC(C)C)c1` [Torsemide] registered a Kd of around 1000 µM.
With `O=C(O)c1ccc(-n2nc(-c3ccccc3O)nc2-c2ccccc2O)cc1` [Deferasirox], in assay [2], the Kd is around 300 µM.

The values are drawn from publication PMC8688747 (Drug Design, Development and Therapy, 2021).
